Results as given in paper PMC5766581, “NF-κB inducing kinase is a therapeutic target for systemic lupus erythematosus” (Nature Communications, 2018).
“Also recorded” adds a separate entry of the source.

What was measured:
human B cells = assay: BAFF B cell survival assay (Cell Titer Glo); assay type: cell-based
Procedure: Human B cells were isolated using Miltenyi Human B cell isolation kit following ficoll separation of buffy coats. […] Mouse B cells were isolated from mouse spleen using Miltenyi mouse B cell isolation kit II. Cells were plated in Co-star 96-well plates at either 50,000 cells/well for the survival assays or at 150,000 cells/well for the proliferation assays. Compounds diluted in DMSO (final DMSO assay concentration = 0.1%) were added to the cells. The cells were incubated with compound for one hour at 37 °C. Stimulus was then added to the plates and survival or proliferation was measured after four days. For the proliferation assays, cells were treated with either Anti-IgM (20 μg/mL) or rhCD40L (10 μg/mL; R&D) or anti-mouse CD40 (100 ng/mL). Proliferation was measured using thymidine incorporation on day four. For the BAFF survival assay, cells were treated with human or mouse rBAFF (R&D Systems) at 10 ng/ml followed by Cell Titer Glo (Promega) to measure survival on day four.

CDK5/p25 = molecular target: T1, CDK5/p25 (Homo sapiens, UniProt Q00535); assay: SelectScreen kinase panel; assay type: biochemical
T1 construct: purchased Invitrogen / ThermoFisher SelectScreen

Hyl = molecular target: T2, Hyl (Homo sapiens, UniProt P42679); assay: SelectScreen kinase panel; assay type: biochemical
T2 construct: purchased Invitrogen / ThermoFisher SelectScreen

[1] = test system: 222 recombinant human kinases; assay: SelectScreen kinase panel, overall selectivity; assay type: biochemical; details: 1 μM
Procedure: The ability of NIK to catalyze the hydrolysis of adenosine-5′-triphosphate (ATP) was monitored using the Transcreener ADP (adenosine-5′-diphosphate) assay (Bell Brook Labs, Fitchburg, WI). Purified human NIK kinase domain (a.a. 340–694) (0.5 nM) or mouse NIK kinase domain (a.a. 329–675) (1 nM) derived from a baculovirus-infected insect cell expression system was incubated with test compounds for 0.5–2 h in 50 mM HEPES buffer (pH 7.2) containing 10 mM MgCl2, 2 mM dithiothreitol, 10 μM ATP, 0.01% Triton X-100, 0.1% gamma-globulins from bovine blood, 1% dimethylsulfoxide (DMSO), 7 μg/mL ADP antibody and 5 nM ADP-MR121 633 tracer. […] The tracer bound to the antibody was displaced by the ADP generated during the NIK reaction, which caused a decrease in fluorescence polarization that was measured by laser excitation at 633 nm with a Fluorescence Correlation Spectroscopy Plus reader (Evotec AG). Equilibrium dissociation constant (Ki) values for NIK inhibitors are calculated from plots of activity vs. inhibitor concentration using Morrison’s quadratic equation that accounts for the potential of tight binding, and by also applying the conversion factor that accounted for competitive inhibition and the concentration of substrate used in the assay relative to its Michaelis constant (Km). The Ki values with hPKD1 (PKCμ) were determined using the same assay conditions as for NIK. […]

C57BL/6 mice = assay: Delayed-type hypersensitivity model; assay type: in vivo, mouse; details: 200 mg/kg BID P.O.
Procedure: Mice were immunized with OVA (100 μg, SC) (Sigma) in complete Freund’s adjuvant (Spectrum Chemicals and Laboratory Products) on day 0 and then challenged again with OVA (10 μg in PBS, SC right ear) on day 6. Ear thickness was measured by calipers, and unchallenged ear thickness was subtracted from OVA challenged ear thickness after 24 and 44 h. […] Investigators were not blinded to experimental samples.

FVB mice = assay: Imiquimod-induced FVB mouse lupus model; assay type: in vivo; details: 200 mg/kg P.O. BID; Imiquimod treated FVB mice
Procedure: Age-matched female FVB mice were purchased from Jackson Laboratory and randomized into experimental groups upon receipt. Ten-week-old female FVB mice were treated with 10 mg of 5% Imiquimod cream (Taro Pharmaceuticals, USA, Hawthorne, N.Y.) applied to the left ear (three doses per week for the duration of the study). […] Proteinuria and survival were tracked through day 91. Plasma PK measurement was done at day 85 prior to the end of the study.

DYRK1A = molecular target: T3, DYRK1A (Homo sapiens, UniProt Q13627); assay: SelectScreen kinase panel; assay type: biochemical
T3 construct: purchased Invitrogen / ThermoFisher SelectScreen
Procedure: (§1) The ability of NIK to catalyze the hydrolysis of adenosine-5′-triphosphate (ATP) was monitored using the Transcreener ADP (adenosine-5′-diphosphate) assay (Bell Brook Labs, Fitchburg, WI). Purified human NIK kinase domain (a.a. 340–694) (0.5 nM) or mouse NIK kinase domain (a.a. 329–675) (1 nM) derived from a baculovirus-infected insect cell expression system was incubated with test compounds for 0.5–2 h in 50 mM HEPES buffer (pH 7.2) containing 10 mM MgCl2, 2 mM dithiothreitol, 10 μM ATP, 0.01% Triton X-100, 0.1% gamma-globulins from bovine blood, 1% dimethylsulfoxide (DMSO), 7 μg/mL ADP antibody and 5 nM ADP-MR121 633 tracer. Reactions were quenched by the addition of 20 mM EDTA and 0.01% Brij 35. The tracer bound to the antibody was displaced by the ADP generated during the NIK reaction, which caused a decrease in fluorescence polarization that was measured by laser excitation at 633 nm with a Fluorescence Correlation Spectroscopy Plus reader (Evotec AG). Equilibrium dissociation constant (Ki) values for NIK inhibitors are calculated from plots of activity vs. inhibitor concentration using Morrison’s quadratic equation that accounts for the potential of tight binding, and by also applying the conversion factor that accounted for competitive inhibition and the concentration of substrate used in the assay relative to its Michaelis constant (Km). The Ki values with hPKD1 (PKCμ) were determined using the same assay conditions as for NIK. Ki measurements for hKHS1 and hLRRK2, as well as broad kinase selectivity profiling for SMI1, were carried out by Invitrogen using their SelectScreen kinase assay panel (ThermoFisher Scientific, Madison, WI). The vendor offered two types of kinase activity assays, a peptide phosphorylation assay (Z′-LYTE) and an ADP quantitation assay (Adapta), as well as one type of kinase ATP site competitive binding assay (LanthaScreen). See vendor web site for technology and protocol details for each specific kinase assay.
(§2) The average % Inhibition of each kinase is reported (Supplementary Table 1).

P38_delta = molecular target: T4, P38_delta (Homo sapiens, UniProt O15264); assay: SelectScreen kinase panel; assay type: biochemical
T4 construct: purchased Invitrogen / ThermoFisher SelectScreen
Procedure: as §1, §2

GRK2 = molecular target: T5, GRK2 (Homo sapiens, UniProt P25098); assay: SelectScreen kinase panel; assay type: biochemical
T5 construct: purchased Invitrogen / ThermoFisher SelectScreen
Procedure: as §1, §2

Fgr = molecular target: T6, Fgr (Homo sapiens, UniProt P09769); assay: SelectScreen kinase panel; assay type: biochemical
T6 construct: purchased Invitrogen / ThermoFisher SelectScreen
T6 sequence (P09769 whole entry): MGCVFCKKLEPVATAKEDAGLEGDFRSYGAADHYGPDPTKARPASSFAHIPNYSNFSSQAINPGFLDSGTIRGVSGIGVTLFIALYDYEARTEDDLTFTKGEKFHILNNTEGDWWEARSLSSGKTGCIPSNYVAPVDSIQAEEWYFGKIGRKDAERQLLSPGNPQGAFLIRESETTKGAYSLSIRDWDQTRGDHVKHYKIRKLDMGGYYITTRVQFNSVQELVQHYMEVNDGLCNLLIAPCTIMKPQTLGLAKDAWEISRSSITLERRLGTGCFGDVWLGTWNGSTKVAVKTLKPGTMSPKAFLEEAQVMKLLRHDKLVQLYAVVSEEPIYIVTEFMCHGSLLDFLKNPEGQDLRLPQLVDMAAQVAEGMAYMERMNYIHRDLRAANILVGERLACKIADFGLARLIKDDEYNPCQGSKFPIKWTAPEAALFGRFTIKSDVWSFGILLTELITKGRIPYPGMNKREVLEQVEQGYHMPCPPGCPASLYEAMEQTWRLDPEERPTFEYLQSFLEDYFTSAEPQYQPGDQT
Procedure: as §1, §2

EphB1 = molecular target: T7, EphB1 (Homo sapiens, UniProt P54762); assay: SelectScreen kinase panel; assay type: biochemical
T7 construct: purchased Invitrogen / ThermoFisher SelectScreen
T7 sequence (P54762 18-984): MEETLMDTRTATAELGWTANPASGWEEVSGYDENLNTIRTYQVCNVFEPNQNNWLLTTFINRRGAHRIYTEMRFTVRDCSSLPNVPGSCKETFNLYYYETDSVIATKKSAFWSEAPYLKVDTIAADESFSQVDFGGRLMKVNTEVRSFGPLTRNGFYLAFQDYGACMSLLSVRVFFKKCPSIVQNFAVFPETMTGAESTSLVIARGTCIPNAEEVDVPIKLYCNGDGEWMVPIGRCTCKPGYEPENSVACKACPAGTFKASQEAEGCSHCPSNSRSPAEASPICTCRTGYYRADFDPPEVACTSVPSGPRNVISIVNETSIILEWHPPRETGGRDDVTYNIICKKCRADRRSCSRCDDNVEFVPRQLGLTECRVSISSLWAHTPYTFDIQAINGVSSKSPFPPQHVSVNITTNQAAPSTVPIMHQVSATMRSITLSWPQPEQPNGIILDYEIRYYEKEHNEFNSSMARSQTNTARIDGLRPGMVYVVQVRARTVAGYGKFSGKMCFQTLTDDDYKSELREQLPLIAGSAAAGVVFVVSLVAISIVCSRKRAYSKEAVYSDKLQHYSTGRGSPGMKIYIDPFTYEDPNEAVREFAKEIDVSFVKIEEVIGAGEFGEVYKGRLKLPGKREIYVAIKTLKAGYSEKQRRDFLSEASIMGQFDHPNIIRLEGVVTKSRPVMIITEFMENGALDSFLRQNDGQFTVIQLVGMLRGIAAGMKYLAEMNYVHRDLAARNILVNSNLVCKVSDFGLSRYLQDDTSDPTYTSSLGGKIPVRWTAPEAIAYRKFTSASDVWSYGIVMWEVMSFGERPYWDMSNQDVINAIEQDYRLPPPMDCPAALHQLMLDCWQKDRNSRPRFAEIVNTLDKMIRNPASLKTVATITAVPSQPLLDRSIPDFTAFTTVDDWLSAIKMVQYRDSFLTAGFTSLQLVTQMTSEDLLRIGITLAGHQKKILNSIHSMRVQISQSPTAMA
Procedure: as §1, §2

PKC_alpha = molecular target: T8, PKC_alpha (Homo sapiens, UniProt P17252); assay: SelectScreen kinase panel; assay type: biochemical
T8 construct: purchased Invitrogen / ThermoFisher SelectScreen
Procedure: as §1, §2

FAK = molecular target: T9, FAK (Homo sapiens, UniProt Q05397); assay: SelectScreen kinase panel; assay type: biochemical
T9 construct: purchased Invitrogen / ThermoFisher SelectScreen
Procedure: as §1, §2

MSSK1 = molecular target: T10, MSSK1 (Homo sapiens, UniProt Q9UPE1); assay: SelectScreen kinase panel; assay type: biochemical
T10 construct: purchased Invitrogen / ThermoFisher SelectScreen
Procedure: as §1, §2

ErbB4 = molecular target: T11, ErbB4 (Homo sapiens, UniProt Q15303); assay: SelectScreen kinase panel; assay type: biochemical
T11 construct: purchased Invitrogen / ThermoFisher SelectScreen
T11 sequence (Q15303 26-1308): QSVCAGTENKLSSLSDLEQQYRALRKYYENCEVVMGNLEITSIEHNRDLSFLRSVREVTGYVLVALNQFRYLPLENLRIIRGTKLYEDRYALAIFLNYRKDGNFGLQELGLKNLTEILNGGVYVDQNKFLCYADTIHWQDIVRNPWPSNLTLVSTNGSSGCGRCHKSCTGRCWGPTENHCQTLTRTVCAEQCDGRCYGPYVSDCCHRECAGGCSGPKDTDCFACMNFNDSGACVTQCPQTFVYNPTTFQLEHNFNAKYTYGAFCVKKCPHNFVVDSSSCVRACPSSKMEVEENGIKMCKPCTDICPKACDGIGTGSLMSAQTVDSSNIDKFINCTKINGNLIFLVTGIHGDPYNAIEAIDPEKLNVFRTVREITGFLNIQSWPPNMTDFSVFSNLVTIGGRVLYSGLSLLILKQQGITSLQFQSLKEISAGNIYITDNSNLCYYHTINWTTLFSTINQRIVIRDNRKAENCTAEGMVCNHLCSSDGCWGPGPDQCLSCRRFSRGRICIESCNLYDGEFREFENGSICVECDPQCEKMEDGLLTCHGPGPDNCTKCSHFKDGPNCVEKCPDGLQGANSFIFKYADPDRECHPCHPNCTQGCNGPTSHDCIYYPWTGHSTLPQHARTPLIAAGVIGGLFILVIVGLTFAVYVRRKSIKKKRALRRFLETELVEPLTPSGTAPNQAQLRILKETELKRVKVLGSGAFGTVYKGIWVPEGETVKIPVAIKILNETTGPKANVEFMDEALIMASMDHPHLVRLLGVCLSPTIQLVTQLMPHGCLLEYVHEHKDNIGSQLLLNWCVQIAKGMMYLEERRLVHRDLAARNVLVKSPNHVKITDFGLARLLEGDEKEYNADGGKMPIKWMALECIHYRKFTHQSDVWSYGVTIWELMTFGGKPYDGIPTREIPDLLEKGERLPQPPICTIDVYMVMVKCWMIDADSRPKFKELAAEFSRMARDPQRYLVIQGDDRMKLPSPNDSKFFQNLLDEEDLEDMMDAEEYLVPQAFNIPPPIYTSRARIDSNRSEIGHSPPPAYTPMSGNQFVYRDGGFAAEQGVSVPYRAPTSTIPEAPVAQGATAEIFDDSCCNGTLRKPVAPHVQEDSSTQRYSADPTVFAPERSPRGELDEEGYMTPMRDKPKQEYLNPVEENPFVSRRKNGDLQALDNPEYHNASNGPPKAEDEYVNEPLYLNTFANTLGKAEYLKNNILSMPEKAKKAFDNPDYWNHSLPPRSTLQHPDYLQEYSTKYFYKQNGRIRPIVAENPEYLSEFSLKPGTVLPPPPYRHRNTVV
Procedure: as §1, §2

PRK1 = molecular target: T12, PRK1 (Homo sapiens, UniProt Q16512); assay: SelectScreen kinase panel; assay type: biochemical
T12 construct: purchased Invitrogen / ThermoFisher SelectScreen
T12 sequence (Q16512 whole entry): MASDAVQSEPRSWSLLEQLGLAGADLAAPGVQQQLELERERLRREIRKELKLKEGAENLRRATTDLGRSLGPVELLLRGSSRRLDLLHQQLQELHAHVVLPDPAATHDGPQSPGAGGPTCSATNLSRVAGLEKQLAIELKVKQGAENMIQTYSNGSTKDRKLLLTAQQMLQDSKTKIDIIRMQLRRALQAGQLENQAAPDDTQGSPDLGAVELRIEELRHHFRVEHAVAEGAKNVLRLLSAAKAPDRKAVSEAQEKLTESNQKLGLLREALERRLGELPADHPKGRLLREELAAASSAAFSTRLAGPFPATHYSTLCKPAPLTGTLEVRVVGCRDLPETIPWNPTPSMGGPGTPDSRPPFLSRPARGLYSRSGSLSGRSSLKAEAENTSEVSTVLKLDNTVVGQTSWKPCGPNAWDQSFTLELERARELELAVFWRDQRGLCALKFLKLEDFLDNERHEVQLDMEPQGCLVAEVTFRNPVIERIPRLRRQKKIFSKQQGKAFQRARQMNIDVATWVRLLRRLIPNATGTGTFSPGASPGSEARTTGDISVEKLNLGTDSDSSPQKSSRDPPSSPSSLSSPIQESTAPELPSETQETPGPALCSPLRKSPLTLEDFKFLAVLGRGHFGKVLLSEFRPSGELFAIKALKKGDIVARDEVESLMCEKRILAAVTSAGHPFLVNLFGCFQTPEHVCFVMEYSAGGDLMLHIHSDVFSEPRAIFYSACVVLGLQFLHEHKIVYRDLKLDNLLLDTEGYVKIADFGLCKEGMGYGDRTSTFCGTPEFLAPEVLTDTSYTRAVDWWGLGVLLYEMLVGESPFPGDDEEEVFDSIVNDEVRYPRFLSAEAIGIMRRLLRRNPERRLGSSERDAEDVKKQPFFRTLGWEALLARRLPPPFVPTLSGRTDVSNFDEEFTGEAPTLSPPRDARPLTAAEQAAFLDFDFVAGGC
Procedure: as §1, §2

FGFR1 = molecular target: T13, FGFR1 (Homo sapiens, UniProt P11362); assay: SelectScreen kinase panel; assay type: biochemical
T13 construct: purchased Invitrogen / ThermoFisher SelectScreen
T13 sequence (P11362 22-822): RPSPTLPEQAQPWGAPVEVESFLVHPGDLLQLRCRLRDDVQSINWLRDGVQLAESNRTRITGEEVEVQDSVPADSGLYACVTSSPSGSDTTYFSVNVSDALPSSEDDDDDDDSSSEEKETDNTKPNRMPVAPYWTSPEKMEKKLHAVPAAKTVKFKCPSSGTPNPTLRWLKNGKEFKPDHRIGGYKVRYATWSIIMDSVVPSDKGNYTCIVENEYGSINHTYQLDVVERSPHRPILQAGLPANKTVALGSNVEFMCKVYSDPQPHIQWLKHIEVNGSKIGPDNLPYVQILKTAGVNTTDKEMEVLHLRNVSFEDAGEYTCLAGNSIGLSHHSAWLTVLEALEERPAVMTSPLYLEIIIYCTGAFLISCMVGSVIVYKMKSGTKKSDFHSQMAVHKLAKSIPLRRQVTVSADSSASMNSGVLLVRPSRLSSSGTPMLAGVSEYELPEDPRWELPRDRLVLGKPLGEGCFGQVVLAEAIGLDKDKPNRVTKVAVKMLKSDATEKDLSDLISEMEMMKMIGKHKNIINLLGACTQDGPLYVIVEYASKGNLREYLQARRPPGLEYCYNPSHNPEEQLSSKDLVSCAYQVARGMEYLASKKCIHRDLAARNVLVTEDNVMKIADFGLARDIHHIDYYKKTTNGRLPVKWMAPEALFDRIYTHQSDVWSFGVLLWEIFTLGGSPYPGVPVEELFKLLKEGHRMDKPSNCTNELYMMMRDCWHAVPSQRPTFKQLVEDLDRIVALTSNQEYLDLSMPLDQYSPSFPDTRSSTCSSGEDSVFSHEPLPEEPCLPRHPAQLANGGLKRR
Procedure: as §1, §2

CaMKI_delta = molecular target: T14, CaMKI_delta (Homo sapiens, UniProt Q8IU85); assay: SelectScreen kinase panel; assay type: biochemical
T14 construct: purchased Invitrogen / ThermoFisher SelectScreen
T14 sequence (Q8IU85 whole entry): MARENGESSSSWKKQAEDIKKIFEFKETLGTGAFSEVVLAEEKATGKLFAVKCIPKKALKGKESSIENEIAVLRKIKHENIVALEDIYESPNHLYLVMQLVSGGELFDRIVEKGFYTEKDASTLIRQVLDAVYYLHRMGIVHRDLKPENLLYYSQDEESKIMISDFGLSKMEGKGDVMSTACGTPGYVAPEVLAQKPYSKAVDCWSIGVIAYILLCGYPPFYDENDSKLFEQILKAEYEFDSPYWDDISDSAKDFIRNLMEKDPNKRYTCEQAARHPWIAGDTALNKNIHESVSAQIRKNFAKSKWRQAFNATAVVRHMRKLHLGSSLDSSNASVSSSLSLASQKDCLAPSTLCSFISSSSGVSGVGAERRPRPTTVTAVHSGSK
Procedure: as §1, §2

CK1_gamma2 = molecular target: T15, CK1_gamma2 (Homo sapiens, UniProt P78368); assay: SelectScreen kinase panel; assay type: biochemical
T15 construct: purchased Invitrogen / ThermoFisher SelectScreen
Procedure: as §1, §2

MARK3 = molecular target: T16, MARK3 (Homo sapiens, UniProt P27448); assay: SelectScreen kinase panel; assay type: biochemical
T16 construct: purchased Invitrogen / ThermoFisher SelectScreen
Procedure: as §1, §2

EphA1 = molecular target: T17, EphA1 (Homo sapiens, UniProt P21709); assay: SelectScreen kinase panel; assay type: biochemical
T17 construct: purchased Invitrogen / ThermoFisher SelectScreen
Procedure: as §1, §2

HIPK1 = molecular target: T18, HIPK1 (Homo sapiens, UniProt Q86Z02); assay: SelectScreen kinase panel; assay type: biochemical
T18 construct: purchased Invitrogen / ThermoFisher SelectScreen
Procedure: as §1, §2

`COc1cc(C(N)=O)nc(-c2cccc(C#C[C@]3(O)CCN(C)C3=O)c2)c1` [NIK SMI1] was tested, and the IC50 (human B cells; Homo sapiens, B-cell, BAFF induced, mean ± SD) was 189 nM, the “BAFF-driven survival of B cells in vitro” value (human B cells; human B cells) was “completely inhibited” and the inhibition at 1 µM (CDK5/p25) was 2.5%. For the same molecule, the inhibition at 1 µM (Hyl) was 4.5%, the “off-target kinases inhibited to an extent >75%” value [1] was 3 out of 222 and the “effect in delayed type hypersensitivity study” value (C57BL/6 mice) was “partial effect”. For the same molecule, the survival (FVB mice) was “efficacious; also recorded: improved survival”, the inhibition at 1 µM (DYRK1A) was 4.5% and the inhibition at 1 µM (P38_delta) was 12.5%. It also gave an inhibition at 1 µM (GRK2) of 4.5%, an inhibition at 1 µM (Fgr) of 8% and an inhibition at 1 µM (EphB1) of 7%. For the same molecule, the inhibition at 1 µM (PKC_alpha) was 4.5%, the inhibition at 1 µM (FAK) was 10.5% and the inhibition at 1 µM (MSSK1) was 11.5%. The inhibition at 1 µM (ErbB4) was 7%, the inhibition at 1 µM (PRK1) was 5.5% and the inhibition at 1 µM (FGFR1) was -5.5%. The inhibition at 1 µM (CaMKI_delta) was 15%, the inhibition at 1 µM (CK1_gamma2) was 8.5% and the inhibition at 1 µM (MARK3) was 7.5%. It also gave an inhibition at 1 µM (EphA1) of 2.5% and an inhibition at 1 µM (HIPK1) of 4.5%.
